Assay [1] has as its system RNA8-3 (RNA, aptamer) GGAGGUACGUGGAUAGGAAGGCCUCC
Kind of assay: fluorescence turn-on titration. Conditions: 125 mM KCl, 5 mM MgCl2; 20 mM Hepes pH 7.4; 100 nM BC1-DN.

Assay [2] deals with M7 (RNA, aptamer) GGAGUACGUGGACUGCUUAUGCAGUAGGAAGGCUCC
Put plainly: fluorescence turn-on titration. The note with it: 125 mM KCl, 5 mM MgCl2; 20 mM Hepes pH 7.4; 100 nM BC1-DN.

The test system of assay [3] is BeCA (RNA8-2) (RNA, aptamer) GGAGGUACGUGGACUGCUUAUGCAGUAGGAAGGCCUCC
Kind of assay: fluorescence turn-on titration. Conditions: 125 mM KCl, 5 mM MgCl2; 20 mM Hepes pH 7.4; 100 nM BC1-DN.

Assay [4] concerns M1 (RNA, aptamer) GGAGGCACGUGGACUGCUUAUGCAGUAGGAAGGCCUCC
Put plainly: fluorescence turn-on titration. Conditions: 125 mM KCl, 5 mM MgCl2; 20 mM Hepes pH 7.4; 100 nM BC1-DN.

Assay [5] deals with M9 (RNA, aptamer) GGAGGUAGUGGACUGCUUAUGCAGUAGGAAGGCCUCC
Put plainly: fluorescence turn-on titration. Conditions: 125 mM KCl, 5 mM MgCl2; 20 mM Hepes pH 7.4; 100 nM BC1-DN.

The subject of assay [6] is RNA8-1 (RNA, aptamer) GGAGGCAGGGCUUAGUUGAGGUACGUGGACUGCUUAUGCAGUAGGAAGGCCUCACUUUUCCGCCGUUGGCACCAC
Kind of assay: fluorescence turn-on titration. Conditions: 125 mM KCl, 5 mM MgCl2; 20 mM Hepes pH 7.4; 100 nM BC1-DN.

In assay [7] the test system is M11 (RNA, aptamer) GGAGGUACGUGGGCUGCUUAUGCAGCAGGAAGGCCUCC
Kind of assay: fluorescence turn-on titration. Conditions: 125 mM KCl, 5 mM MgCl2; 20 mM Hepes pH 7.4; 100 nM BC1-DN.

The test system of assay [8] is M4 (RNA, aptamer) GGAGGUACGUGGACUGCUUAUGCAGUAGGAAGCCCUCC
Kind of assay: fluorescence turn-on titration. Conditions: 125 mM KCl, 5 mM MgCl2; 20 mM Hepes pH 7.4; 100 nM BC1-DN.

Assay [9] deals with M5 (RNA, aptamer) GGAGGUACGUGGACUGCUUAUGCAGUAGGAAGUCCUCC
Kind of assay: fluorescence turn-on titration. The note with it: 125 mM KCl, 5 mM MgCl2; 20 mM Hepes pH 7.4; 100 nM BC1-DN.

The test system of assay [10] is M10 (RNA, aptamer) GGAGGUACGUGGACUGCUUAUGCAGUAGGAAGCCUCC
Put plainly: fluorescence turn-on titration. Conditions: 125 mM KCl, 5 mM MgCl2; 20 mM Hepes pH 7.4; 100 nM BC1-DN.

Assay [11] concerns M8 (RNA, aptamer) GGAGGUCGUGGACUGCUUAUGCAGUAGGAAGGCCUCC
Kind of assay: fluorescence turn-on titration. The note with it: 125 mM KCl, 5 mM MgCl2; 20 mM Hepes pH 7.4; 100 nM BC1-DN.

The subject of assay [12] is M12 (RNA, aptamer) GGAGGUACGUGGACUGCUUCGGCAGUAGGAAGGCCUCC
Kind of assay: fluorescence turn-on titration. Conditions: 125 mM KCl, 5 mM MgCl2; 20 mM Hepes pH 7.4; 100 nM BC1-DN.

Assay [13] has as its system M3 (RNA, aptamer) GGAGGUACGUGGACUGCUUAUGCAGUAGGAAGACCUCC
Kind of assay: fluorescence turn-on titration. The note with it: 125 mM KCl, 5 mM MgCl2; 20 mM Hepes pH 7.4; 100 nM BC1-DN.

Assay [14] concerns M6 (RNA, aptamer) GGAAAUACGUGGACUGCUUAUGCAGUAGGAAGGUUUCC
Kind of assay: fluorescence turn-on titration. The note with it: 125 mM KCl, 5 mM MgCl2; 20 mM Hepes pH 7.4; 100 nM BC1-DN.

The subject of assay [15] is M2 (RNA, aptamer) GGAGGGACGUGGACUGCUUAUGCAGUAGGAAGCCCUCC
Kind of assay: fluorescence turn-on titration. Conditions: 125 mM KCl, 5 mM MgCl2; 20 mM Hepes pH 7.4; 100 nM BC1-DN.

Assay [16] relates to BeCA (RNA8-2) (RNA, aptamer) GGAGGUACGUGGACUGCUUAUGCAGUAGGAAGGCCUCC
Put plainly: fluorescence turn-on titration (NIR). Conditions: 125 mM KCl, 5 mM MgCl2; 20 mM Hepes pH 7.4; 100 nM BC6.

The term KD denotes the equilibrium constant for the complex coming apart. A high value points to weaker binding. As for `CN(C)c1ccc2cc(-c3cc(-c4ccc(C(=O)NCCOCCOCCNc5ccc([N+](=O)[O-])cc5[N+](=O)[O-])cc4C(=O)[O-])c4ccc(N(C)C)cc4[o+]3)c(=O)oc2c1`, the KD in assay [1] was more than 10 µM; in assay [2] it was 0.20 ± 0.03 µM; in assay [3] it was 230 nM; in assay [4], 1.1 ± 0.47 µM; in assay [5], 0.25 ± 0.06 µM; in assay [6], 0.9 ± 0.2 µM. Besides, the KD is 0.27 ± 0.08 µM in assay [7]; 4.6 ± 1.4 µM in assay [8]; 1.3 ± 0.27 µM in [9]; 0.77 ± 0.18 µM in assay [10]; 1.1 ± 0.44 µM in assay [11]; 0.33 ± 0.12 µM in assay [12]. Further, the KD in assay [13] is 0.62 ± 0.19 µM; in assay [14], 0.35 ± 0.05 µM; in assay [15], 1.7 ± 0.48 µM.
As for `CN(C)c1ccc2c(c1)OC(c1cc3ccc(N(C)C)cc3oc1=O)=CC21c2ccccc2C(=O)N1C#N` (stereo not shown), in assay [16], the “KD” value was determined as 220 nM.

The values are drawn from publication PMC8518806 (2021).
